Conditions: 100 kPa, Liquid; for electrical conductivity: Frequency=0.0006 MHz, Alternating current cell with electrodes; for viscosity: Concentric cylinders viscometry; for mass density: Vibrating tube method

CC[N+](C)(CCO)CCO.O=S(=O)([N-]S(=O)(=O)C(F)(F)F)C(F)(F)F
Conditions	electrical conductivity [S/m]	mass density [kg/m3]	viscosity [mPa·s]
283.15 K	0.027	–	–
288.15 K	0.04	1524.5	536.2
289.15 K	–	1523.6	–
290.15 K	–	1522.7	–
291.15 K	–	1521.7	–
292.15 K	–	1520.8	–
293.15 K	0.056	1519.9	–
294.15 K	–	1519	–
295.15 K	–	1518	–
296.15 K	–	1517.1	–
297.15 K	–	1516.2	–
298.15 K	0.076	1515.3	268.3
299.16 K	–	1514.4	–
300.16 K	–	1513.4	–
301.15 K	–	1512.5	–
302.15 K	–	1511.6	–
303.15 K	0.101	1510.7	197.7
304.15 K	–	1509.8	–
305.15 K	–	1508.9	–
306.15 K	–	1508	–
307.15 K	–	1507.1	–
308.15 K	0.13	1506.2	149
309.15 K	–	1505.3	–
310.15 K	–	1504.4	–
311.15 K	–	1503.5	–
312.15 K	–	1502.6	–
313.15 K	0.165	1501.7	112.6
314.15 K	–	1500.8	–
315.15 K	–	1499.9	–
316.15 K	–	1499	–
317.15 K	–	1498.1	–
318.15 K	0.206	1497.2	89.9
319.15 K	–	1496.3	–
320.15 K	–	1495.4	–
321.15 K	–	1494.6	–
322.15 K	–	1493.7	–
323.15 K	0.253	1492.8	71.7
324.15 K	–	1491.9	–
325.15 K	–	1491	–
326.15 K	–	1490.2	–
327.15 K	–	1489.3	–
328.15 K	–	1488.4	58.1
329.15 K	–	1487.5	–
330.15 K	–	1486.7	–
331.15 K	–	1485.8	–
332.15 K	–	1484.9	–
333.15 K	–	1484.1	47.3
334.15 K	–	1483.2	–
335.16 K	–	1482.3	–
336.15 K	–	1481.5	–
337.15 K	–	1480.6	–
338.15 K	–	1479.7	39.7
339.15 K	–	1478.9	–
340.15 K	–	1478	–
341.15 K	–	1477.1	–
342.15 K	–	1476.3	–
343.15 K	–	1475.4	33.4
344.15 K	–	1474.6	–
345.15 K	–	1473.7	–
346.15 K	–	1472.8	–
347.15 K	–	1472	–
348.15 K	–	1471.1	28.4
349.15 K	–	1470.3	–
350.15 K	–	1469.4	–
351.15 K	–	1468.6	–
352.15 K	–	1467.7	–
353.15 K	–	1466.8	24.3
354.15 K	–	1466	–
355.15 K	–	1465.1	–
356.15 K	–	1464.3	–
357.15 K	–	1463.5	–
358.15 K	–	1462.6	21.1
359.15 K	–	1461.8	–
360.15 K	–	1460.9	–
361.15 K	–	1460.1	–
362.16 K	–	1459.2	–
363.15 K	–	1458.4	18.4

CCCC[N+](CCO)(CCO)CCO.O=S(=O)([N-]S(=O)(=O)C(F)(F)F)C(F)(F)F
Conditions	electrical conductivity [S/m]	mass density [kg/m3]	viscosity [mPa·s]
283.15 K	0.004	–	–
288.15 K	0.007	–	2752.6
289.15 K	–	1464.4	–
290.15 K	–	1463.6	–
291.15 K	–	1462.7	–
292.15 K	–	1461.8	–
293.15 K	0.011	1461	1684.4
294.15 K	–	1460.1	–
295.15 K	–	1459.2	–
296.15 K	–	1458.3	–
297.15 K	–	1457.5	–
298.15 K	0.016	1456.6	1072
299.16 K	–	1455.7	–
300.16 K	–	1454.9	–
301.15 K	–	1454	–
302.15 K	–	1453.1	–
303.15 K	0.024	1452.3	708.7
304.15 K	–	1451.4	–
305.15 K	–	1450.5	–
306.15 K	–	1449.7	–
307.15 K	–	1448.8	–
308.15 K	0.034	1447.9	484.5
309.15 K	–	1447.1	–
310.15 K	–	1446.2	–
311.15 K	–	1445.4	–
312.15 K	–	1444.5	–
313.15 K	0.046	1443.6	340.8
314.15 K	–	1442.8	–
315.15 K	–	1441.9	–
316.15 K	–	1441	–
317.15 K	–	1440.2	–
318.15 K	0.062	1439.3	245.9
319.15 K	–	1438.4	–
320.15 K	–	1437.6	–
321.15 K	–	1436.7	–
322.15 K	–	1435.8	–
323.15 K	0.082	1435	182
324.15 K	–	1434.1	–
325.15 K	–	1433.2	–
326.15 K	–	1432.4	–
327.15 K	–	1431.5	–
328.15 K	–	1430.6	137.7
329.15 K	–	1429.8	–
330.15 K	–	1428.9	–
331.15 K	–	1428.1	–
332.15 K	–	1427.2	–
333.15 K	–	1426.3	106.6
334.15 K	–	1425.5	–
335.16 K	–	1424.6	–
336.15 K	–	1423.8	–
337.15 K	–	1422.9	–
338.15 K	–	1422.1	83.5
339.15 K	–	1421.2	–
340.15 K	–	1420.4	–
341.15 K	–	1419.5	–
342.15 K	–	1418.7	–
343.15 K	–	1417.8	66.7
344.15 K	–	1417	–
345.15 K	–	1416.1	–
346.15 K	–	1415.3	–
347.15 K	–	1414.5	–
348.15 K	–	1413.6	54.1
349.15 K	–	1412.8	–
350.15 K	–	1411.9	–
351.15 K	–	1411.1	–
352.15 K	–	1410.3	–
353.15 K	–	1409.4	44.7
354.15 K	–	1408.6	–
355.15 K	–	1407.7	–
356.15 K	–	1406.9	–
357.15 K	–	1406.1	–
358.15 K	–	1405.2	37
359.15 K	–	1404.4	–
360.15 K	–	1403.6	–
361.15 K	–	1402.8	–
362.16 K	–	1401.9	–
363.15 K	–	1401.1	31.1
